Results on five compounds are retold here after ChEMBL document CHEMBL4837263, “N-Aromatic-Substituted Indazole Derivatives as Brain-Penetrant and Orally Bioavailable JNK3 Inhibitors” (ACS Med Chem Lett, 2021).

pIC50: −log10 of the molar value. Activity calls are given as the source filed them.

The target of series [1] is T1, Mitogen-activated protein kinase 10 (Homo sapiens, UniProt P53779). In words: Inhibition of JNK3alpha1 (unknown origin) using biotinylated FL-ATF-2 as substrate measured after 22 mins by homogeneous time-resolved fluorescence analysis.
T1 sequence (P53779 whole entry): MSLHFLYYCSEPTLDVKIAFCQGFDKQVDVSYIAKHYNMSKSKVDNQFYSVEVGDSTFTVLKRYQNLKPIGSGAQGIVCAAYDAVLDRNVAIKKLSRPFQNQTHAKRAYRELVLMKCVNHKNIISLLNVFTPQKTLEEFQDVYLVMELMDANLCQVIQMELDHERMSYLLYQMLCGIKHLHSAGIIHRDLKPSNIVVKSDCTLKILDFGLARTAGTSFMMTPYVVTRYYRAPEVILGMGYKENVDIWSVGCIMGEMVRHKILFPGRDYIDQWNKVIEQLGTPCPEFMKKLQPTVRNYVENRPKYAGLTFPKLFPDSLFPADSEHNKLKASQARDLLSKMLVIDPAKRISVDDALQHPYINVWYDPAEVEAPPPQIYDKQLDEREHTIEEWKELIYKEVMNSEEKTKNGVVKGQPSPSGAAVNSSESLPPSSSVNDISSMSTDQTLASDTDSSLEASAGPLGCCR
Series [2] in a line: Selectivity index, ratio of IC50 for JNK2 (unknown origin) to IC50 for JNK3 (unknown origin).
A short description of series [3]: Selectivity index, ratio of IC50 for p38 alpha (unknown origin) to IC50 for JNK3 (unknown origin).
In another series the test system is SH-SY5Y. In words: Cytotoxicity against human SH-SY5Y cells assessed as reduction in cell viability at 10 uM measured after 48 hrs by MTT assay. It counts as cell-based. A general note: Formazan colour is commonly taken as a measure of viable cells.
Series [4] is described as follows: Stability in mouse liver microsome assessed as half life. To be noted: liver microsomes. It counts as ADME.
Series [5] addresses T2, Mitogen-activated protein kinase 8 (Homo sapiens, UniProt P45983). In words: Inhibition of JNK1 (unknown origin) using biotinylated FL-ATF-2 as substrate measured after 22 mins by homogeneous time-resolved fluorescence analysis.
The next series has as its target CYP2C9 (Homo sapiens, UniProt P11712). In words: Inhibition of CYP2C9 (unknown origin) assessed as tolbutamide hydroxylation to hydrocytolbutamide at 10 uM by cocktail inhibition assay relative to control. To be noted: probe tolbutamide (hydroxylation to hydroxytolbutamide).
A further series concerns the target T3, CYP1A2 (Homo sapiens, UniProt P05177).
T3 sequence (P05177 whole entry): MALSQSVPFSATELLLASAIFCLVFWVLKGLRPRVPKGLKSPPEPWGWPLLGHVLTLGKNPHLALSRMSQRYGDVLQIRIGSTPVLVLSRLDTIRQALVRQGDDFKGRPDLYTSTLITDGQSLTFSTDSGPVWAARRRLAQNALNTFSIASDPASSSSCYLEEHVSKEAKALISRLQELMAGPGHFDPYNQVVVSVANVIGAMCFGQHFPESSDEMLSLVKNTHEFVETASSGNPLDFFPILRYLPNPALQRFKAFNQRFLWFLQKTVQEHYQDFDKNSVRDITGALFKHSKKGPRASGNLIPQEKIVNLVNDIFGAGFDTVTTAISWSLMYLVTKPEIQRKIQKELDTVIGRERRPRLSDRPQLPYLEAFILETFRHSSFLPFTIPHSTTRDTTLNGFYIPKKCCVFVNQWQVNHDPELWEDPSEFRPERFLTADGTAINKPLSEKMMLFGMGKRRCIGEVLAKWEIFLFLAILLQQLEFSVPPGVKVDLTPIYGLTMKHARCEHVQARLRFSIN
In words: Inhibition of CYP1A2 (unknown origin) assessed as phenaceten demethylation to acetaminophen at 10 uM by cocktail inhibition assay relative to control. To be noted: probe phenacetin (demethylation to acetaminophen).

In series [6] the target is Voltage-gated inwardly rectifying potassium channel KCNH2 (Homo sapiens, UniProt Q12809). In words: Inhibition of human ERG expressed in CHO cells at -80 mV holding potential by automated Qpatch electrophysiological method. (In general: The patch-clamp technique gives a direct electrical read-out from membranes.)
Voltage-gated inwardly rectifying potassium channel KCNH2, sequence (Q12809 whole entry): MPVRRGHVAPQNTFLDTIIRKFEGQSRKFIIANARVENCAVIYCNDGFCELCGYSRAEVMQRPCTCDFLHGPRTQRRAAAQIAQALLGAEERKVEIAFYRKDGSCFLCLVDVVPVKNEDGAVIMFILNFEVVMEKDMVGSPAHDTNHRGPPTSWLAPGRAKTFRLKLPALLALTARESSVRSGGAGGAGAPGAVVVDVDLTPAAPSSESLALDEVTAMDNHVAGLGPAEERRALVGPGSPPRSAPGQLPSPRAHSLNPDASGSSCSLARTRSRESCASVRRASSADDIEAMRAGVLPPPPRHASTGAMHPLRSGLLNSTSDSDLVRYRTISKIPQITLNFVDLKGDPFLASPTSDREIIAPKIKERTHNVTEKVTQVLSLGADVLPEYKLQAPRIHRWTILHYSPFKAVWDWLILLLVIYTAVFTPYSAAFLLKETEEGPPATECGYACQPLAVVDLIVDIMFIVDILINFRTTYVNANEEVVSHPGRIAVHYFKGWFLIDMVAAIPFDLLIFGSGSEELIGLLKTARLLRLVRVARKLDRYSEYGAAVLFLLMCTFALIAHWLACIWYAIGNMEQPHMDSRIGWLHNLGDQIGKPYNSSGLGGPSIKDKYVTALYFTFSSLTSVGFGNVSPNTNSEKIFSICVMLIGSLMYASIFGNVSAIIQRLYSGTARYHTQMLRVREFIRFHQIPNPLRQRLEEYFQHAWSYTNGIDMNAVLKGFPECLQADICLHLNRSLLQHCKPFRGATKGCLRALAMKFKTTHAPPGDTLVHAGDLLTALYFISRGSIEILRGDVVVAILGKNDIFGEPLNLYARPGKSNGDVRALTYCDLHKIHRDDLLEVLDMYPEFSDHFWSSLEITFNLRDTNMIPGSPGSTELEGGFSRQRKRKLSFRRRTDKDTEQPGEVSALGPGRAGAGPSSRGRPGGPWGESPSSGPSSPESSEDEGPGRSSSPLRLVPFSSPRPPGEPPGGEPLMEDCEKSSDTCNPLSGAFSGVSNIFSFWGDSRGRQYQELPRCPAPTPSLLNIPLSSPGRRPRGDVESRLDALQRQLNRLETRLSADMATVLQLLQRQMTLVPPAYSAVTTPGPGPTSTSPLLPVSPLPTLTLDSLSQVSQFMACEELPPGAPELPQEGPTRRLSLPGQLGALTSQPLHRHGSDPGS
Series [7] has as its target T4, Mitogen-activated protein kinase 9 (Homo sapiens, UniProt P45984). In words: Inhibition of JNK2 (unknown origin) using biotinylated FL-ATF-2 as substrate measured after 22 mins by homogeneous time-resolved fluorescence analysis.
Target sequence in this assay (P45984 whole entry): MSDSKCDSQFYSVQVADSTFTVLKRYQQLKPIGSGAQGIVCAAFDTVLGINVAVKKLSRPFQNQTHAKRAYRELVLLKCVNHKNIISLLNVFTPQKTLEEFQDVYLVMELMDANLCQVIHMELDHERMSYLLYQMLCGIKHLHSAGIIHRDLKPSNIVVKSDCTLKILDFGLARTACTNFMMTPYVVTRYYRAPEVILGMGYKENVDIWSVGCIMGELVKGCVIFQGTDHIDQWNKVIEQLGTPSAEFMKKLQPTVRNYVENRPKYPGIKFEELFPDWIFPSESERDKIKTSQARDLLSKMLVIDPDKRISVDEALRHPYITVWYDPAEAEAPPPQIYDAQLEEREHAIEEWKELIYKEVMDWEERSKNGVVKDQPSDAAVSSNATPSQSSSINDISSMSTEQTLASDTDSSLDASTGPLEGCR
A further series has as its target CYP2D6 (Homo sapiens, UniProt P10635). In words: Inhibition of CYP2D6 (unknown origin) assessed as bufuralol hydroxylation to 4'-hydroxy bufuralol at 10 uM by cocktail inhibition assay relative to control. As to conditions: probe bufuralol (hydroxylation to 4'-hydroxy bufuralol).
The nature of series [8]: Selectivity index, ratio of IC50 for JNK1 (unknown origin) to IC50 for JNK3 (unknown origin).
Series [9] deals with T5, Mitogen-activated protein kinase 14 (Homo sapiens, UniProt Q16539). In words: Inhibition of p38 alpha (unknown origin) using biotinylated FL-ATF-2 as substrate measured after 22 mins by homogeneous time-resolved fluorescence analysis.
T5 sequence (Q16539 whole entry): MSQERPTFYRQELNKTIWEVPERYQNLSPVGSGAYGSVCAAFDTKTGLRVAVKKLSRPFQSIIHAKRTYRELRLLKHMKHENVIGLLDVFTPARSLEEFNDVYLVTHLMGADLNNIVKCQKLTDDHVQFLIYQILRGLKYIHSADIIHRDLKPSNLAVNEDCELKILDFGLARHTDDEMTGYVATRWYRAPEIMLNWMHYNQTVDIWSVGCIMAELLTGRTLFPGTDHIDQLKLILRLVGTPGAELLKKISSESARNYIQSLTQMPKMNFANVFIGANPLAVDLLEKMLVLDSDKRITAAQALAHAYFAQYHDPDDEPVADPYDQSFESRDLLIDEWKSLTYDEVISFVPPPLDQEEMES
Series [10] in a line: Stability in human liver microsome assessed as half life. It counts as ADME. As to conditions: liver microsomes. A general note: Liver microsomes are a subcellular fraction often used to study metabolism.
A further series concerns the target CYP3A4 (Homo sapiens, UniProt P08684). In words: Inhibition of CYP3A4 (unknown origin) assessed as midazolam hydroxylation to 1'-hydroxy midazolam at 10 uM by cocktail inhibition assay relative to control. As to conditions: probe midazolam (hydroxylation to 1'-hydroxy midazolam).
In another series the target is Cytochrome P450 2C9 (Homo sapiens, UniProt P11712). In words: Inhibition of CYP2C9 (unknown origin) by titration method.
Cytochrome P450 2C9, sequence (P11712 whole entry): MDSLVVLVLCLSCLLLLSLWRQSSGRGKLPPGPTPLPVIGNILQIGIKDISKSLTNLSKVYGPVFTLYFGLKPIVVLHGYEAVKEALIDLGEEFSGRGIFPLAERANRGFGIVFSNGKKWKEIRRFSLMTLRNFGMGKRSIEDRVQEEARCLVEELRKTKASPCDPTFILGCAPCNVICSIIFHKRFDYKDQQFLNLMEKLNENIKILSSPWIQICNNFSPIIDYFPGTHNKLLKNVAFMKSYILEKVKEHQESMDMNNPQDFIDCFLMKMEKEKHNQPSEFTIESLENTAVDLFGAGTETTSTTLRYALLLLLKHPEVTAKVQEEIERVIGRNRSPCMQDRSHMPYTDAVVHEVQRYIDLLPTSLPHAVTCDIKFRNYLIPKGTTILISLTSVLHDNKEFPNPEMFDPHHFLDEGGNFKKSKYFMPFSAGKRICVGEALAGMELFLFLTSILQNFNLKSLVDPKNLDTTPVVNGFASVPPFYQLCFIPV
In series [11] the target is T4, Mitogen-activated protein kinase 9. In words: Inhibition of human JNK2 at 1 uM using ATF2 as substrate by [gamma-33P]-ATP assay relative to control.
Series [12] can be described thus: Drug concentration in C57BL/6J mouse plasma at 30 mg/kg, po measured after 2 hrs by LC-MS/MS analysis. It counts as ADME, organism-based.
Series [13] addresses Mitogen-activated protein kinase 10 (Rattus norvegicus) (UniProt P49187). In words: Inhibition of JNK3 in rat primary neuron assessed as reduction in phosphorylation of APP at T668 residue at < 1 nM incubated for 30 mins by Western blot analysis. As to conditions: dose nM <1, time 30.0 min.
Series [14] has as its target T2, Mitogen-activated protein kinase 8. In words: Inhibition of human JNK1 using ATF2 as substrate by [gamma-33P]-ATP assay. As to conditions: dose 1.0 µM.
In series [15] the target is T5, Mitogen-activated protein kinase 14. In words: Inhibition of human p38alpha at 1 uM using MBP as substrate by [gamma-33P]-ATP assay relative to control.
The target of series [16] is T6, Epithelial discoidin domain-containing receptor 1 (Homo sapiens, UniProt Q08345). In words: Inhibition of human DDR1 using KKSRGDYMTMQIG as substrate by [gamma-33P]-ATP assay.
In series [17] the target is T7, Casein kinase I isoform epsilon (Homo sapiens, UniProt P49674). In words: Inhibition of human CK1E at 1 uM using KRRRAL[pS]VASLPGL as substrate by [gamma-33P]-ATP assay relative to control.
Series [18] has as its target T1, Mitogen-activated protein kinase 10. In words: Inhibition of human JNK3 at 1 uM using ATF2 as substrate by [gamma-33P]-ATP assay relative to control.
Series [19] deals with Protein-tyrosine kinase 6 (Homo sapiens) (UniProt Q13882). In words: Inhibition of human BRK at 1 uM using poly[Glu:Tyr](4:1) as substrate by [gamma-33P]-ATP assay relative to control.
Series [20] deals with T7, Casein kinase I isoform epsilon. In words: Inhibition of human CK1E using KRRRAL[pS]VASLPGL as substrate by [gamma-33P]-ATP assay.
Series [21] in a line: Drug concentration in C57BL/6J mouse brain at 30 mg/kg, po measured after 2 hrs by LC-MS/MS analysis. Format: ADME, organism-based. To be noted: read-out: Ct.
Series [22] concerns the target T6, Epithelial discoidin domain-containing receptor 1. In words: Inhibition of human DDR1 at 1 uM using KKSRGDYMTMQIG as substrate by [gamma-33P]-ATP assay relative to control.

CYP2D6, sequence (P10635 whole entry): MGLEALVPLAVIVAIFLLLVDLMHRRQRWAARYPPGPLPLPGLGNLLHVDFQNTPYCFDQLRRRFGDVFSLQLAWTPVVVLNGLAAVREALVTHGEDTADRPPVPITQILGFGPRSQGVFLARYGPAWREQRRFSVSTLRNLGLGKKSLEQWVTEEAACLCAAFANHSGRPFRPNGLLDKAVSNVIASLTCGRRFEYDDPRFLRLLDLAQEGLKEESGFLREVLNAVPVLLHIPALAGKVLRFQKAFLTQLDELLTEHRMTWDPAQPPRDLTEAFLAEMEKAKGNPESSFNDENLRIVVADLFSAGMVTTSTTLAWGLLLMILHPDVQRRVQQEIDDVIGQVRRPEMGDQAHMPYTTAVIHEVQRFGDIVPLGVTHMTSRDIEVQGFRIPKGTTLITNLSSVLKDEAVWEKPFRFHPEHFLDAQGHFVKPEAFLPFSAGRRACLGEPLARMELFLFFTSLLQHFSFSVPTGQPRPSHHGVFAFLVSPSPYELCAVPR
T2 sequence (P45983 whole entry): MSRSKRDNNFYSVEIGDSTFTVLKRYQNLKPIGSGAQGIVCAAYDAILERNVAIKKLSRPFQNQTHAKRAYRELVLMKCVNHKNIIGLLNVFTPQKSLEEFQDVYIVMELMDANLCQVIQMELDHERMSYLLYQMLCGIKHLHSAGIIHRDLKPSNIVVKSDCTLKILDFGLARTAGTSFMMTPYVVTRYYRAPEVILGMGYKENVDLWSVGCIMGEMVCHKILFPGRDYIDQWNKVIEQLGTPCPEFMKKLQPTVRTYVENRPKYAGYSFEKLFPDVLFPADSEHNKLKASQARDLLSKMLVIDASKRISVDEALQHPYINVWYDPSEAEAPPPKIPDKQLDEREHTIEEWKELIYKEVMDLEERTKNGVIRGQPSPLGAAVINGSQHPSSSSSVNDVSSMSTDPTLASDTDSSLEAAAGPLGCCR
CYP2C9, sequence (P11712 whole entry): as the sequence (P11712 whole entry) above
CYP3A4, sequence (P08684 whole entry): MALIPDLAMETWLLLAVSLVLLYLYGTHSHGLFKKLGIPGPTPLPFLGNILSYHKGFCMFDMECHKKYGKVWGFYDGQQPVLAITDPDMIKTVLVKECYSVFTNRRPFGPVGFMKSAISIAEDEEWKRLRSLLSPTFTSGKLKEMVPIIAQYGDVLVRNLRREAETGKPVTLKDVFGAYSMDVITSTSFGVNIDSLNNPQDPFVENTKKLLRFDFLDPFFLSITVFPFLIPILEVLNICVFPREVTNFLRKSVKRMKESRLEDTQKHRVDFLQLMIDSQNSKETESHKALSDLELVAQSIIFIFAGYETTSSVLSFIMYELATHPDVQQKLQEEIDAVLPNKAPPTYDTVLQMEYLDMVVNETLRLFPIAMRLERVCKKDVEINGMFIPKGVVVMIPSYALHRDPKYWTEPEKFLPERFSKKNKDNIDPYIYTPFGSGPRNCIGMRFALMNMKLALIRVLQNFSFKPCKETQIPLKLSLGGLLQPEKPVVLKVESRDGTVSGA
Mitogen-activated protein kinase 10 (Rattus norvegicus), sequence (P49187 whole entry): as the sequence (P53779 whole entry) above, with Q27H, Y32S, I33V, A34V counted along it

As usually defined, the pIC50 is −log10 of the IC50, conventionally taken in molar units. The term half-life denotes the time needed for the level to fall by half in the phase considered. For orientation: inhibition means the relative decrease from the control value, in per cent. On to `CNC(=O)c1cc(-n2ncc3cc(Nc4c(F)cccc4Cl)c(C)nc32)cs1`, for which the pIC50 was 7.92 in series [1]; 6.06 in [5]; less than 4.52 in series [6]; 6.85 in series [7]; 6.42 in series [9]. Moreover, the Ratio IC50 worked out at 11 in [2], 31 in [3] and 73 in [8]. The Cell viability with SH-SY5Y worked out at 109%. Also, the figures for the half-life in [4] and in [10] were 17 min and 26 min, respectively. For the same compound, the inhibition at 10 µM is 61% at CYP2C9, 43% at CYP1A2, 19% on CYP2D6 and -2% on CYP3A4.
As to `O=C(NC1COC1)c1cc(-n2ncc3cc(Nc4ccccc4Cl)cnc32)cs1`, the negative logarithm of the IC50 (pIC50) in series [1] was 8.22; in series [5] it was 6.03; in series [7] it was 6.59; against Cytochrome P450 2C9, 5.40; in series [9], 6.59. In addition, the Ratio IC50 in series [2] was 43; in series [3], 43; in [8] it was 157. Moreover, the Cell viability with SH-SY5Y is 103%. The half-life came out at 9 min in series [4] and 21 min in [10]. In addition, the inhibition at 10 µM at CYP2C9 was 76%; at CYP1A2, 19%; at CYP2D6, 15%; on CYP3A4 it was 14%.
Turning to `CNC(=O)c1cc(-n2ncc3cc(Nc4ccccc4Cl)cnc32)cs1`, the negative logarithm of the IC50 (pIC50) in [1] is 7.62; in series [5], 5.33; in series [6] it was less than 4.00; in [7], 6.38; against Cytochrome P450 2C9, 5.40; in series [9], 6.32. Besides, the Ratio IC50 in [2] stood at 17; in series [3], 20; in [8], 197. Moreover, the Cell viability in the series on SH-SY5Y was 119%. The half-life in series [4] was 14 min; in series [10] it was 15 min. Besides, the inhibition at 10 µM at CYP2C9 was determined as 66%; on CYP1A2, 30%; on CYP2D6, 30%; at CYP3A4, 57%.
In the case of `Cc1nc2c(cnn2-c2csc(C(=O)NC3COC3)c2)cc1Nc1c(F)cccc1Cl`, the inhibition in series [11] turned out to be 81%; in series [14], 30%; in series [15] it was 75%; in series [17], 78%; in series [18], 89%; in [19], 55%. In addition, the inhibition in series [22] stood at 73%. For the same compound, the concentration at 2 h in [12] was found to be 5.9 µM; in series [21], 3.3 µM. Also, the inhibition entry in series [13] is “Active”. For the same compound, in the series with SH-SY5Y, the Cell viability was determined as 116%. The half-life stood at 77 min in series [4] and 92 min in series [10]. Also, the pIC50 was 7.13 in series [7], 6.61 in series [16] and 7.00 in [20].
On to `CNC(=O)c1cc(-n2ncc3cc(Nc4ccccc4Cl)c(F)cc32)cs1`, for which the negative-log IC50 (pIC50) in series [1] was 8.30; in series [5], 6.21; in [6], less than 4.52; in [7], 7.03; in series [9] it was 7.00. Moreover, the Ratio IC50 is 18 in series [2], 20 in series [3] and 124 in series [8]. For the same compound, the inhibition result in [13] is “Active”. In the series on SH-SY5Y, the Cell viability stood at 83%. The half-life in [4] came out at 42 min; in series [10], 37 min. For the same compound, the inhibition at 10 µM on CYP2C9 is 39%; at CYP1A2, 21%; at CYP2D6, -4%; at CYP3A4 it was -13%.
